Test results as given in ChEMBL document CHEMBL5236646, “Design, synthesis, and biological evaluation of BRD4 degraders” (Bioorg Med Chem, 2023).
Activity calls are given as the source filed them. The rule behind the calls is not given here.

How the values were obtained:
[1] = biological target: T1, Protein cereblon/Bromodomain-containing protein 4 (Homo sapiens) (UniProt O60885+Q96SW2); test: Protac activity at CRBN/BRD4 in human MM1.S cells assessed as induction of BRD4 protein degradation by measuring residual activity at 0.01 uM incubated for 3 hrs by Western blot analysis relative to control; assay type: cell-based
[2] = biological target: T1, Protein cereblon/Bromodomain-containing protein 4 (Homo sapiens); test: Protac activity at CRBN/BRD4 in human MM1.S cells assessed as downregulation of MYC protein expression at 300 nM measured after 3 hrs by Western blot analysis; assay type: cell-based
[3] = biological target: T1, Protein cereblon/Bromodomain-containing protein 4 (Homo sapiens); test: Protac activity at CRBN/BRD4 in human MV4-11 cells assessed as induction of BRD4 protein degradation by measuring residual activity at 30 nM measured immediately by Western blot analysis (reference value: 100%); assay type: cell-based
[4] = biological target: T1, Protein cereblon/Bromodomain-containing protein 4 (Homo sapiens); test: Protac activity at CRBN/BRD4 in human MV4-11 cells assessed as induction of BRD4 protein degradation by measuring residual activity at 30 nM measured after 6 hrs by Western blot analysis (reference value: 100%); assay type: cell-based
[5] = biological target: T1, Protein cereblon/Bromodomain-containing protein 4 (Homo sapiens); test: Protac activity at CRBN/BRD4 in human MM1.S cells assessed as induction of BRD4 protein degradation by measuring residual activity at 300 nM measured after 1 hr by Western blot analysis (reference value: 317%); assay type: cell-based
[6] = biological target: T1, Protein cereblon/Bromodomain-containing protein 4 (Homo sapiens); test: (§1) Protac activity at CRBN/BRD4 in human MM1.S cells assessed as induction of BRD4 protein degradation by measuring residual activity at 300 nM measured after 6 hrs by Western blot analysis (reference value: 100%); assay type: cell-based
[7] = biological target: T1, Protein cereblon/Bromodomain-containing protein 4 (Homo sapiens); test: Protac activity at CRBN/BRD4 in human MV4-11 cells assessed as induction of BRD4 protein degradation by measuring residual activity at 10 nM measured after 6 hrs by Western blot analysis (reference value: 100%); assay type: cell-based
[8] = biological target: T1, Protein cereblon/Bromodomain-containing protein 4 (Homo sapiens); test: Protac activity at CRBN/BRD4 in human MV4-11 cells assessed as induction of BRD4 protein degradation by measuring residual activity at 100 nM measured after 6 hrs by Western blot analysis (reference value: 100%); assay type: cell-based
[9] = biological target: T1, Protein cereblon/Bromodomain-containing protein 4 (Homo sapiens); test: as §1, with “nM preincubated with tert-butyl (S)-2-(4-(4-chlorophenyl)-2,3,9-trimethyl-6H-thieno[3,2-f][1,2,4]triazolo[4,3-a][1,4]diazepin-6-yl)acetate for 2 hrs followed by compound addition and” for “nM”; assay type: cell-based
[10] = Inhibition of TGF-beta induced activation of human MRC5 cells assessed as residual BRD4 protein level at 1 uM by Western blot analysis (reference value: 96%); assay type: functional

T1 sequence (Q96SW2 whole entry, looked up, other chains not shown): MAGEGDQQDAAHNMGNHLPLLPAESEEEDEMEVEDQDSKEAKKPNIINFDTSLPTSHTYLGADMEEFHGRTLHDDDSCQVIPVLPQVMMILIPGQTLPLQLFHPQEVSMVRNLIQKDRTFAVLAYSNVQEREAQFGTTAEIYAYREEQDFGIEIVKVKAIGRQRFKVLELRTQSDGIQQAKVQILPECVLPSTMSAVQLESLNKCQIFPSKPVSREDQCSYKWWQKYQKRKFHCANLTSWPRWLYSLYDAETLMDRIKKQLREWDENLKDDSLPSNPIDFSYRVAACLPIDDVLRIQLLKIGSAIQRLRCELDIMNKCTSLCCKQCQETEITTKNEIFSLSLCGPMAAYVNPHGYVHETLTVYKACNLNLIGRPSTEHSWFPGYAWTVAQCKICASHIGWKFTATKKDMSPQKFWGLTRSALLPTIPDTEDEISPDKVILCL

With Cc1sc2c(c1C)C(c1ccc(Cl)cc1)=N[C@@H](CC(=O)NCCCCC(=O)NCCNc1cccc3c1C(=O)N(C1CCC(=O)NC1=O)C3=O)c1nnc(C)n1-2 (stereo not given in full) the Activity [1] was 93%, the Activity [2] was “Active” and the Activity [3] was 110%. It also gave an Activity [4] of 13%, an Activity [5] of 129% and an Activity [6] of 17%. It also gave an Activity [7] of 41%, an Activity [8] of 28% and an Activity [9] of 61%. The Activity [10] was 40%.
